Results taken from US20260191809A1, “Pharmaceutical Compositions Of D10-Docosahexaenoic Acid Or Esters Thereof” (BioJiva LLC, priority 2022, published 2026).

Columns and labels:
[1] = Predicted steady-state D-DHA substitution and plasma decline without dosing in patients, modeled from the mouse data; design: species or system human
[2] = as above; design: species or system human; conditions: for D-DHA substitution rate at steady-state (% of total DHA): DHA in human diet 130 mg
Text: In contrast to controlled experimental diets, naturally occurring DHA is consumed by patients treated with D-DHA which can dilute the relative percentage of administered D-DHA absorbed with the total DHA pool and its final concentration at steady state in blood and eventually in the target tissue such as retina. The data and standard curves referred to above allow for the determination of retinal steady-state active D-DHA concentrations with reasonable accuracy by calculating the D-DHA/total DHA ratio in plasma and/or red blood cells. Table 4 exemplifies this by using a mean daily dietary intake of about 130 mg of DHA per day (which represents the 90th percentile of the mean usual DHA intake by males >51 years of age in the US.
FIGS. 3, 4, 5, and 6 illustrate how measuring plasma and red blood cell active D-DHA concentrations can be used to predict expected retinal steady-state concentrations. With a known fixed daily dose and the measured of active D-DHA substitution rate at steady-state, this also allows to approximate and monitor the mean dietary DHA intake of individual patients and permits either a timely adjustment of the daily D-DHA dose or dietary interventions to reduce natural DHA intake until the desired therapeutic active D-DHA substitution levels, preferably about 50% or more, can be reached.
In each case, the first order kinetics evidence that a dose of 250 mg dose of D-DHA will provide for a steady-state ratio of active D-DHA based on the total DHA concentration present, as set forth in Table 4. Extrapolating backwards from the case in Table 4, a dose of at least 130 mg/day of D-DHA should provide a 1:1 ratio of active D-DHA to DHA. That ratio has been shown above to be therapeutic. And a dose of 250 mg of higher should provide a ratio of 1.9:1 or higher which provides a margin for non-compliance as described herein above.
Tables 5, 6, and 7 are based on Table 2 and describe the time it takes for plasma D-DHA levels to fall below 50% or below 20% with 5 different daily doses of D-DHA in (i) patients in the 90th percentile of daily intake consuming up to 130 mg DHA (Table 5), (ii) those in the 95th percentile with a daily intake of up to 180 mg DHA (Table 6), and (iii) an example of a patient consuming more than one meal of oily fish per week with up to 260 mg daily DHA intake.

[3] = mouse, in vivo
Text: Mature adult C57BL/6J mice were fed for 77 days with a customized rodent diet containing 0.5% w/w D-DHA and no natural DHA. The animals were sacrificed, and plasma, red blood cells and retinal tissues were dissected at study Days 8, 19, 38, 77, (six animals per time point, 3 males+3 females). Active D-DHA+DHA were extracted from samples and derivatized into methyl esters with a mixture of heptane/toluene (63:37 by volume), and methanol/dimethoxypropane/sulfuric acid (85:11:4 by volume) by gentle shaking at 80° C. for 2 hours, followed by separation and drying down of the organic phase under nitrogen. D-DHA+DHA methyl esters were structurally identified and quantified by gas chromatography coupled with a tandem mass spectrometry detector and D-DHA substitution levels (in percent of total DHA) were calculated.

geographic atrophy = assay: Protection against geographic atrophy after intravitreal ferric ammonium citrate; type: in vivo, C57BL/6J mice
Text: In this example, two cohorts of adult male wild-type C57BL/6J mice (Jackson Labs) were used. Both cohorts were fed identical feed containing 0.25% or 0.5% D-DHA or matching amounts of DHA as controls. After 4 weeks, the mice were given an intravitreal injection of 1 microliter of 0.5 millimolar ferric ammonium citrate diluted in 0.9% saline (test) or 1 microliter of 0.9% saline (control). Mice were then continued on their respective diets for 4 weeks after injection in order to evaluate whether D-DHA could protect against geographic atrophy which is related to AMD.

[4] = Daily D-DHA Dose 250 mg, Background DHA/Day 130 mg
[5] = Daily D-DHA Dose 250 mg, Background DHA/Day 180 mg
[6] = Daily D-DHA Dose 250 mg, Background DHA/Day 260 mg
[7] = Daily D-DHA Dose 500 mg, Background DHA/Day 130 mg
[8] = Daily D-DHA Dose 500 mg, Background DHA/Day 180 mg
[9] = Daily D-DHA Dose 500 mg, Background DHA/Day 260 mg
[10] = Daily D-DHA Dose 750 mg, Background DHA/Day 260 mg
[11] = Daily D-DHA Dose 1000 mg, Background DHA/Day 260 mg

[2H]C([2H])(/C=C\CC)/C=C\C([2H])([2H])/C=C\C([2H])([2H])/C=C\C([2H])([2H])/C=C\C([2H])([2H])/C=C\CCC(=O)O [D-DHA, D-10-docosahexaenoic acid]
time to red blood cell steady state concentration of active D-DHA after the start of therapy ([1]; red blood cell, patients): about 45 days | time to steady state concentration of active D-DHA after start of therapy ([1]; skeletal muscle tissue): about 11 weeks | ratio of D-DHA to DHA at steady state ([2]; 250 mg D-DHA per day, on average about 130 mg per day of DHA, plasma, red blood cells, liver, skeletal muscle): 1.92 to 1 | Time to reach 20% in Plasma (0.2:1 D-DHA to DHA Ratio) w/o taking oral D-DHA [2, 4]: ≤ 77 days | Time to reach ≤50% in Plasma (1:1 D-DHA to DHA Ratio) w/o taking oral D-DHA [2, 4]: ≤ 22 days | Days to reach ≤50% in Plasma (1:1 D-DHA to DHA Ratio) w/o taking oral D-DHA [2, 5]: ≤ 11 days | Time to reach 20% in Plasma (0.2:1 D-DHA to DHA Ratio) w/o taking oral D-DHA [2, 5]: ≤ 66 days | Days to reach ≤50% in Plasma (1:1 D-DHA to DHA Ratio) w/o taking oral D-DHA [2, 6]: below 50% | Time to reach 20% in Plasma (0.2:1 D-DHA to DHA Ratio) w/o taking oral D-DHA [2, 6]: ≤ 29 days | Time to reach 20% in Plasma (0.2:1 D-DHA to DHA Ratio) w/o taking oral D-DHA [2, 7]: ≤ 46 days | Time to reach ≤50% in Plasma (1:1 D-DHA to DHA Ratio) w/o taking oral D-DHA [2, 7]: ≤ 6 days | Days to reach ≤50% in Plasma (1:1 D-DHA to DHA Ratio) w/o taking oral D-DHA [2, 8]: ≤ 35 days | Time to reach 20% in Plasma (0.2:1 D-DHA to DHA Ratio) w/o taking oral D-DHA [2, 8]: ≤ 90 days | Days to reach ≤50% in Plasma (1:1 D-DHA to DHA Ratio) w/o taking oral D-DHA [2, 9]: ≤ 8 days | Time to reach 20% in Plasma (0.2:1 D-DHA to DHA Ratio) w/o taking oral D-DHA [2, 9]: ≤ 63 days | Time to reach ≤50% in Plasma (1:1 D-DHA to DHA Ratio) w/o taking oral D-DHA ([2]; Daily D-DHA Dose 750 mg, Background DHA/Day 130 mg): ≤ 60 days | Days to reach ≤50% in Plasma (1:1 D-DHA to DHA Ratio) w/o taking oral D-DHA ([2]; Daily D-DHA Dose 750 mg, Background DHA/Day 180 mg): ≤ 49 days | Days to reach ≤50% in Plasma (1:1 D-DHA to DHA Ratio) w/o taking oral D-DHA [2, 10]: ≤ 26 days | Time to reach 20% in Plasma (0.2:1 D-DHA to DHA Ratio) w/o taking oral D-DHA [2, 10]: ≤ 81 days | Time to reach ≤50% in Plasma (1:1 D-DHA to DHA Ratio) w/o taking oral D-DHA ([2]; Daily D-DHA Dose 1000 mg, Background DHA/Day 130 mg): ≤ 70 days | Days to reach ≤50% in Plasma (1:1 D-DHA to DHA Ratio) w/o taking oral D-DHA ([2]; Daily D-DHA Dose 1000 mg, Background DHA/Day 180 mg): ≤ 59 days | Days to reach ≤50% in Plasma (1:1 D-DHA to DHA Ratio) w/o taking oral D-DHA [2, 11]: ≤ 38 days | Time to reach 20% in Plasma (0.2:1 D-DHA to DHA Ratio) w/o taking oral D-DHA [2, 11]: ≤ 93 days | Time to reach ≤50% in Plasma (1:1 D-DHA to DHA Ratio) w/o taking oral D-DHA ([2]; Daily D-DHA Dose 1250 mg, Background DHA/Day 130 mg): ≤ 77 days | Days to reach ≤50% in Plasma (1:1 D-DHA to DHA Ratio) w/o taking oral D-DHA ([2]; Daily D-DHA Dose 1250 mg, Background DHA/Day 180 mg): ≤ 67 days | Days to reach ≤50% in Plasma (1:1 D-DHA to DHA Ratio) w/o taking oral D-DHA ([2]; Daily D-DHA Dose 1250 mg, Background DHA/Day 260 mg): ≤ 47 days | D-DHA substitution rate at steady-state (% of total DHA) ([2]; Fixed daily D-DHA dose 250 mg): 66% | D-DHA substitution rate at steady-state (% of total DHA) ([2]; Fixed daily D-DHA dose 500 mg): 79% | D-DHA substitution rate at steady-state (% of total DHA) ([2]; Fixed daily D-DHA dose 1000 mg): 88% | time to plasma steady state concentration of active D-DHA after the start of therapy ([2]; plasma, patients): about 14 days | accretion half-life [3]: ~210 h | protection against geographic atrophy (geographic atrophy; concentration of D-DHA at least 50% of the total DHA in the retina, feed 0.25% or 0.5% D-DHA, 4 weeks after iron injection): fully protected | protection against geographic atrophy (geographic atrophy; lower concentrations of D-DHA to DHA in the retina (below 50%)): protection was achieved but at reduced rates | protection against geographic atrophy (geographic atrophy; ratios of about 1:4 of D-DHA to DHA): protection is accorded | protection against geographic atrophy (geographic atrophy; ratios of at least about 1:1 D-DHA to DHA): maximal
